Laboratory results reported in patent US20060084704A1, “Methods and compositions for enhancing degradation of nuclear receptor transcription factors and uses thereof” (priority 2004, published 2006).

Legend:
Type in all cases: cell-based
[1] = biological target: T1, LNCaP androgen receptor (endogenous mutant AR) (Homo sapiens, UniProt P10275, T878A); assay: Androgen receptor transactivation assay in LNCaP cells (MMTV-luciferase reporter); details: DHT 1 nM, JC9 0 uM to 7.5 uM
T1 construct: LNCaP cells express an endogenous mutant AR that is found in prostate cancer patients; host or cells: LNCaP
T1 sequence (P10275 1-920 T878A): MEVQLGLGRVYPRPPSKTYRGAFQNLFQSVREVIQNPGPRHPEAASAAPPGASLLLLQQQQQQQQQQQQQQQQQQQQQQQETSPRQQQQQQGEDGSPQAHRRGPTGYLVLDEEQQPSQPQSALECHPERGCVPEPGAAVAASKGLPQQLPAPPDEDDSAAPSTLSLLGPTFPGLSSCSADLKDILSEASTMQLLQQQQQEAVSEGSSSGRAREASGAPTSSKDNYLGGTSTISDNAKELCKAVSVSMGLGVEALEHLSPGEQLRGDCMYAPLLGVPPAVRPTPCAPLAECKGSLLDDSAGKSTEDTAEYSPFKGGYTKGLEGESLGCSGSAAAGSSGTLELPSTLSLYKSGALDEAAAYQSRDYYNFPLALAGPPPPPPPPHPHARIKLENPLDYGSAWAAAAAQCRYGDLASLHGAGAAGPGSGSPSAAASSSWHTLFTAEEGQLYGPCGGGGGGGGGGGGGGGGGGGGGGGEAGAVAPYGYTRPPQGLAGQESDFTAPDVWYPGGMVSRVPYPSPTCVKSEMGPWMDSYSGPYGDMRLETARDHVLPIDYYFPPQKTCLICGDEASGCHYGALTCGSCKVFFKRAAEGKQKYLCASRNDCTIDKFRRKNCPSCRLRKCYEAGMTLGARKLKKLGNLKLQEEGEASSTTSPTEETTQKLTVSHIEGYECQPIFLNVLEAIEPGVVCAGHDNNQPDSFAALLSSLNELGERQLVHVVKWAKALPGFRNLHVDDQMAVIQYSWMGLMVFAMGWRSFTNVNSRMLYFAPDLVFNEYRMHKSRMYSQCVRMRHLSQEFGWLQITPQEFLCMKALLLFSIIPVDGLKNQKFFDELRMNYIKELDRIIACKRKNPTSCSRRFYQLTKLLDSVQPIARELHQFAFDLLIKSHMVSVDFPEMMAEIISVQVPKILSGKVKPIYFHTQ
Description: Prostate cancer cells, non-prostate tumor cells, and normal cells can be used in this transient transfection assay, which measures transactivation of the androgen receptor (AR) and can be used to detect a reduction of AR activity caused by AR degradation. In the provided non-limiting example, CV-1 (green monkey kidney cells lacking an androgen receptor) and LNCaP cells (prostate cancer cells containing an endogenous mutant AR), were transfected with a plasmid carrying an androgen response element (ARE) and a reporter gene.
Both the CV-1 and LNCaP cells (obtained from ATCC, Manassas, Va.) were maintained in […] medium supplemented with penicillin (25 units/millilter), streptomycin (25 micrograms/milliliter), and 10% heat-inactivated fetal bovine serum (FBS). Cells were plated in 35-millimeter dishes at a concentration of 1-2×10^5cells/well and cultured at 37 degrees Celsius in an incubator under a 5% carbon dioxide atmosphere. […] The cells were lysed, and luciferase activity of the lysate was measured with the Dual-Luciferase Reporter Assay System (Promega, Madison, Wis.). Data were expressed as relative luciferase activity normalized to the internal luciferase positive control. […]

AR = biological target: T2, AR (Homo sapiens, UniProt P10275, T878A); details: LNCaP, JC9 5 micromolar about 20 hours, then cycloheximide 15 micrograms/milliliter
T2 construct: LNCaP cells express an endogenous mutant AR that is found in prostate cancer patients; host or cells: LNCaP
T2 sequence (P10275 1-920 T878A): T1 sequence (P10275 1-920 T878A)
Description: To determine whether the observed reduction of AR protein levels was due to protein degradation rather than inhibition of AR protein synthesis, a second set of three replicate experiments was performed. […] In the absence of new AR protein synthesis, any alterations in AR levels would be mainly attributable to protein degradation. LNCaP cells were cultured, and incubated with JC9 (5 micromolar) for about 20 hours.

[2] = biological target: T3, mutant Q49 androgen receptor (Homo sapiens, UniProt P10275, INS80QQQQQQQQQQQQQQQQQQQQQQQQQQ); assay: Mutant androgen receptor inclusions in COS-1 cells transfected with GFPARQ49 (fluorescence microscopy); details: COS-1 cells transfected with GFPARQ49, JC9 5 micromolar
T3 construct: GFP; expressed in transfected cells; host or cells: COS-1 (monkey kidney)
Description: Monkey kidney COS-1 cells were plated at a density of 3×10^4 cells per 0.5-milliliter volume onto alcohol-cleaned and sterilized cover slips placed in 35-millimeter suspension culture dishes containing Dulbecco's modified Eagle's (DME) medium containing 10% FBS. The cells were transfected with plasmids containing either the Q19 (plasmid GFPARQ19) or Q49 (plasmid GFPARQ49) mutant androgen receptor and green fluorescent protein (GFP) as a reporter. For each coverslip, 12.3 microliters SuperFect was added to 3.075 micrograms plasmid in 102.5 microliters DME medium (to give a 1:4 ratio of DNA to SuperFect reagent); the mixture was vortexed briefly, and the complex allowed to form over 15 minutes. Each mixture then received 897 microliters CD/DME and was mixed gently. The resulting 1-milliliter volumes were added to the dishes containing the coverslips (final plasmid concentration was 3.02 micrograms per dish). Cells were allowed to incubate with the transfection solution for 5 hours, then the medium was changed to fresh 1.5 milliliters CD/DME medium with either vehicle (DMSO) only added or JC9 (final concentration 5 micromolar). […] The coverslips were air-dried, mounted on slides with a glycerol-based mounting agent, and stored at 4 degrees Celsius if necessary prior to observation with fluorescence microscopy. […]

T3 sequence (P10275 with tags, fused parts or gaps with the stated changes): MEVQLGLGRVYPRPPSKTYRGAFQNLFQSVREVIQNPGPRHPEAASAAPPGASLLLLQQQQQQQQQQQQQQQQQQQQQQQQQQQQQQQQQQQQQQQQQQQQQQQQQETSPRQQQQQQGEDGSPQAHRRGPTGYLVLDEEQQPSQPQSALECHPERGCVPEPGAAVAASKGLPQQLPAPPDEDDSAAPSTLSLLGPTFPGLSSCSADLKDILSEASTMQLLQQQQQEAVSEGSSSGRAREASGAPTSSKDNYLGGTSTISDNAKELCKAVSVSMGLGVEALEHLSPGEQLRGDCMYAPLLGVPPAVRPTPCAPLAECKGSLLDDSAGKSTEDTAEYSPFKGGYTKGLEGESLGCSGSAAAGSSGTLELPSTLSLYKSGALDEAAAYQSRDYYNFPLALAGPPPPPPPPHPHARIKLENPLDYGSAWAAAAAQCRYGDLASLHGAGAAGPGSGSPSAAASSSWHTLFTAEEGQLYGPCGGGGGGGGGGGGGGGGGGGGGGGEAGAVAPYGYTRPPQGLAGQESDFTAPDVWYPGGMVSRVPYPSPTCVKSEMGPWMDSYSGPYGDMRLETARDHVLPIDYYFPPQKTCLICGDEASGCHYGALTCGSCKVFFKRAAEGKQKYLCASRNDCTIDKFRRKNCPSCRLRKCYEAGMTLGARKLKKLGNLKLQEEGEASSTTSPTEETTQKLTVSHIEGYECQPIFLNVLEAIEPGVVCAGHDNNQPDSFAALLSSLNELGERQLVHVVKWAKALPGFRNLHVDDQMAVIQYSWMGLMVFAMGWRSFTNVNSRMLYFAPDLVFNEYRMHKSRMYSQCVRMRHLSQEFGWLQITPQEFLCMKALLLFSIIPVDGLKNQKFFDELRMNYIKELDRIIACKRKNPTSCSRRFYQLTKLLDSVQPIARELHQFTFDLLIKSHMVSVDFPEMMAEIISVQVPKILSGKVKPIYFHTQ

Structure (SMILES): COc1ccc(C=CC(=O)C=C(O)C=Cc2ccc(OC)c(OC)c2)cc1OC [JC9, 5-hydroxy-1,7-bis(3,4-dimethoxyphenyl)-1,4,6-heptatrien-3-one]
- LNCaP androgen receptor transactivation (relative luciferase activity) [1]: dose-dependent inhibition of LNCaP androgen receptor transactivation
- time within which degradation of existing AR protein was enhanced (AR): ≤ 4 h
- fluorescent inclusions or aggregates of mutant Q49 androgen receptor [2]: substantially smaller amounts of fluorescent inclusions
